In ChEMBL document CHEMBL1136737, “Virtual screening for submicromolar leads of tRNA-guanine transglycosylase based on a new unexpected binding mode detected by crystal structure analysis” (J Med Chem, 2003):

Each molecule was assayed against Queuine tRNA-ribosyltransferase (Zymomonas mobilis (strain ATCC 31821 / ZM4 / CP4), UniProt P28720) (assay: Inhibitory activity against eubacterial tRNA guanine transglycosylase (TGT) from Zymomonas mobilis).
Chain of Queuine tRNA-ribosyltransferase (P28720 whole entry): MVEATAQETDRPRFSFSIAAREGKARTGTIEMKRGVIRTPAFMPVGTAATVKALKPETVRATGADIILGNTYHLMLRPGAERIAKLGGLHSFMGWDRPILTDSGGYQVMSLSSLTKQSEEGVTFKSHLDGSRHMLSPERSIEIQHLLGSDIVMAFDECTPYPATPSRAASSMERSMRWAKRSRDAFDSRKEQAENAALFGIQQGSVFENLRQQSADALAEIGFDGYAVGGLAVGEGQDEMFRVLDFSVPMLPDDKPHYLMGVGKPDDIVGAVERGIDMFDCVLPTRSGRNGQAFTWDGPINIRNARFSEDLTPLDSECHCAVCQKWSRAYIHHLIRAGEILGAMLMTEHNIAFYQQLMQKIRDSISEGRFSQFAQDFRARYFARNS

Ki [µM]	Structure (SMILES)
0.25	Cc1cnc2nc(N)nc(O)c2n1
37	Nc1nc(O)c2[nH]c(N3CCCCC3)nc2n1
8.1	Nc1c2c(O)nc(O)cc2nn1CCO
200	O=c1[nH][nH]c(=O)c2[nH]cnc12
156	Cc1ccc2[nH]c3nnc(N)c-3cc2c1
249	Nc1[nH]nc2nc(-c3ccccc3)[nH]c(=O)c12
2.7	Nc1nc(O)c2[nH]c(SCc3ccc(Cl)cc3)nc2n1
4.7	Cc1csc2c(O)c3c(=O)[nH][nH]c(=O)c3nc12
3.8	Nc1nc2nc(-c3ccccc3)cnc2c(=O)[nH]1
72	NNC(=O)c1cc2cc(F)ccc2[nH]1
5	O=c1[nH][nH]c(=O)c2c(O)c3sccc3nc12
0.6	Nc1nc2nccnc2c(=O)[nH]1 [PTERINE]

Structure (SMILES)	Ki [µM]
Nc1cccc2c(=O)[nH][nH]c(=O)c12	36
